Data from the NIST ThermoML archive (doi:10.1016/j.fluid.2012.03.005).
Numbers after ± are expanded uncertainties.

Conditions: for surface tension liquid-gas: Pendant drop shape; for mass density: 101.33 kPa, Liquid, Vibrating tube method

CCCCCCCCCCCCCC[P+](CCCCCC)(CCCCCC)CCCCCC.[Br-] [tetradecyltrihexylphosphonium bromide]
Conditions | mass density [kg/m3] | surface tension liquid-gas [mN/m]
293.15 K | 961.7 ± 5 | 29.97 ± 0.81
297.15 K | 959.2 ± 5 | –
298.15 K | 958.6 ± 5 | 29.32 ± 0.79
301.15 K | 956.7 ± 5 | –
303.15 K | 955.5 ± 4.9 | 28.94 ± 0.78
305.15 K | 954.3 ± 4.9 | –
308.15 K | 952.4 ± 4.9 | 28.53 ± 0.77
309.15 K | 951.8 ± 4.9 | –
313.15 K | 949.3 ± 4.9 | 28.15 ± 0.76
317.15 K | 946.9 ± 4.9 | –
318.15 K | 946.2 ± 4.9 | 27.81 ± 0.75
321.15 K | 944.4 ± 4.8 | –
323.15 K | 943.1 ± 4.8 | 27.46 ± 0.75
325.15 K | 941.9 ± 4.8 | –
328.15 K | 940.1 ± 4.8 | 27.12 ± 0.74
329.15 K | 939.4 ± 4.8 | –
333.15 K | 937 ± 4.8 | 26.78 ± 0.73
337.15 K | 934.6 ± 4.7 | –
338.15 K | 934 ± 4.7 | 26.57 ± 0.72
341.15 K | 932.1 ± 4.7 | –
343.15 K | 930.9 ± 4.7 | 26.24 ± 0.71
345.15 K | 929.7 ± 4.7 | –
